How the values were obtained:
MV4-11 cells = experiment: MV4-11 Cell Cytotoxicity Assay (CellTiter-Blue, 72 h); assay type: cell-based, human; conditions: Homo sapiens, MV4-11; MV-4-11 cells
Summary of the method: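 Viability read-out: CellTiter-Blue, 1 h, fluorescence 560/590 nm. Preceded by 72 h exposure (37° C, 5% CO2) to twofold dilution series from 50 μM, triplicate, 0.5% DMSO vehicle, applied 24 h after plating.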

[1] = tested on: normal human fibroblast (NHF) cells; experiment: NHF Cell Cytotoxicity Assay (CellTiter-Blue, 72 h), off-target effects; assay type: cell-based; conditions: Homo sapiens, Fibroblast; pooled NHF cells
Summary of the method: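 Normal human fibroblasts (1×10^4/well, 10% FBS medium) were treated after 24 h with inhibitor at 0.097656-50 μM for 72 h at 37° C. Viability was read by CellTiter-Blue fluorescence (560/590 nm), normalized to DMSO control, and IC50 obtained from a variable-slope log(inhibitor)-response fit of four replicates.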

glutathione (GSH) = experiment: Reactivity Profiling with Glutathione (GSH), half-life by HPLC; conditions: 5 mM glutathione (GSH) in IMDM with 10% FBS

| SMILES | half-life at 25 μM (glutathione (GSH)) [h] | IC50 (MV4-11 cells) [nM] | IC50 [1] [nM] |
| --- | --- | --- | --- |
| COc1cc(C(=O)O)ccc1N(Cc1cc(C2CC2)cc(C2CC2)c1)C(=O)CN(Cc1cnccc1C(F)(F)F)S(=O)(=O)c1c(F)c(F)c(F)c(F)c1F [Compound 1146, 4-(N-(3,5-dicyclopropylbenzyl)-2-(N-((4-(trifluoromethyl)pyridin-3-yl)methyl)-(2,3,4,5,6-pentafluoro-phenyl)sulfonamido)acetamido)-3-methoxybenzoic acid] | 0.00167 to 2.37 | 316 to 1000 | 1 to 10000 |
| COc1cc(C(=O)O)ccc1N(Cc1cc(C2CC2)cc(C2CC2)c1)C(=O)CN(Cc1c(F)cc(F)cc1F)S(=O)(=O)c1c(F)c(F)c(F)c(F)c1F [Compound 1148, 4-(N-(3,5-dicyclopropylbenzyl)-2-(N-(2,4,6-trifluorobenzyl)-(2,3,4,5,6-pentafluoro-phenyl)sulfonamido)acetamido)-3-methoxybenzoic acid] | 2.37 to 4.12 | 0.01 to 316 | 1 to 10000 |
| O=C(O)c1ccc(N(Cc2cc(C3CC3)cc(C3CC3)c2)C(=O)CN(Cc2ncccc2C(F)(F)F)S(=O)(=O)c2c(F)c(F)c(F)c(F)c2F)c(OC2CC2)c1 [Compound 1164, 3-cyclopropoxy-4-(N-(3,5-dicyclopropylbenzyl)-2-(N-((3-(trifluoromethyl)pyridin-2-yl)methyl)-(2,3,4,5,6-pentafluoro-phenyl)sulfonamido)acetamido)benzoic acid] | 4.12 to 9.23 | 316 to 1000 | 20000 to 30000 |
| O=C(O)c1ccc(N(Cc2cc(C3CC3)cc(C3CC3)c2)C(=O)CN(Cc2c(F)cc(F)cc2F)S(=O)(=O)c2c(F)c(F)c(F)c(F)c2F)c(OC2CC2)c1 [Compound 1178, 3-cyclopropoxy-4-(N-(3,5-dicyclopropylbenzyl)-2-(N-(2,4,6-trifluorobenzyl)-(2,3,4,5,6-pentafluoro-phenyl)sulfonamido)acetamido)benzoic acid] | 4.12 to 9.23 | 0.01 to 316 | 10000 to 20000 |
| O=C(O)c1ccc(N(Cc2cc(C3CC3)cc(C3CC3)c2)C(=O)CN(Cc2c(F)c(F)c(F)c(F)c2F)S(=O)(=O)c2c(F)c(F)c(F)c(F)c2F)c(OC2CC2)c1 [Compound 1183, 3-cyclopropoxy-4-(N-(3,5-dicyclopropylbenzyl)-2-(N-((perfluorophenyl)methyl)-(2,3,4,5,6-pentafluoro-phenyl)sulfonamido)acetamido)benzoic acid] | 9.23 to 1670 | 0.01 to 316 | 1 to 10000 |
| CC(C)(C)c1cc(CN(C(=O)CN(Cc2cnccc2C(F)(F)F)S(=O)(=O)c2c(F)c(F)c(F)c(F)c2F)c2ccc(C(=O)O)cc2C2CC2)cc(C2CC2)c1 [Compound 1186, 4-(N-(3-(tert-butyl)-5-cyclopropylbenzyl)-2-(N-((4-(trifluoromethyl)pyridin-3-yl)methyl)-(2,3,4,5,6-pentafluoro-phenyl)sulfonamido)acetamido)-3-cyclopropylbenzoic acid] | 2.37 to 4.12 | 0.01 to 316 | 1 to 10000 |
| O=C(O)c1ccc(N(Cc2cc(C3CC3)cc(C3CC3)c2)C(=O)CN(Cc2cnccc2C(F)(F)F)S(=O)(=O)c2c(F)c(F)c(F)c(F)c2F)c(C2CC2)c1 [Compound 1194, 3-cyclopropyl-4-(N-(3,5-dicyclopropylbenzyl)-2-(N-((4-(trifluoromethyl)pyridin-3-yl)methyl)-(2,3,4,5,6-pentafluoro-phenyl)sulfonamido)acetamido)benzoic acid] | 0.00167 to 2.37 | 0.01 to 316 | 1 to 10000 |
| O=C(O)c1ccc(N(Cc2cc(C3CC3)cc(C3CC3)c2)C(=O)CN(Cc2c(F)cc(F)cc2F)S(=O)(=O)c2c(F)c(F)c(F)c(F)c2F)c(C2CC2)c1 [Compound 1195, 3-cyclopropyl-4-(N-(3,5-dicyclopropylbenzyl)-2-(N-(2,4,6-trifluorobenzyl)-(2,3,4,5,6-pentafluoro-phenyl)sulfonamido)acetamido)benzoic acid] | 2.37 to 4.12 | 0.01 to 316 | 1 to 10000 |
| O=C(O)c1ccc(N(Cc2cc(C3CC3)cc(C3CC3)c2)C(=O)CN(Cc2c(F)c(F)c(F)c(F)c2F)S(=O)(=O)c2c(F)c(F)c(F)c(F)c2F)c(C2CC2)c1 [Compound 1196, 3-cyclopropyl-4-(N-(3,5-dicyclopropylbenzyl)-2-(N-((perfluorophenyl)methyl)-(2,3,4,5,6-pentafluoro-phenyl)sulfonamido)acetamido)benzoic acid] | 9.23 to 1670 | 0.01 to 316 | 1 to 10000 |
| O=C(O)c1ccc(N(Cc2cc(C3CC3)cc(N3CCCC3)c2)C(=O)CN(Cc2c(F)cc(F)cc2F)S(=O)(=O)c2c(F)c(F)c(F)c(F)c2F)c(C2CC2)c1 [Compound 1199, 3-cyclopropyl-4-(N-(3-cyclopropyl-5-(pyrrolidin-1-yl)benzyl)-2-(N-(2,4,6-trifluorobenzyl)-(2,3,4,5,6-pentafluoro-phenyl)sulfonamido)acetamido)benzoic acid] | 9.23 to 1670 | 0.01 to 316 | 1 to 10000 |
| Cc1cc(C(=O)O)cc(C)c1N(Cc1cc(C2CC2)cc(C2CC2)c1)C(=O)CN(Cc1c(F)cc(F)cc1F)S(=O)(=O)c1c(F)c(F)c(F)c(F)c1F [Compound 1203, 4-(N-(3,5-dicyclopropylbenzyl)-2-(N-(2,4,6-trifluorobenzyl)-(2,3,4,5,6-pentafluoro-phenyl)sulfonamido)acetamido)-3,5-dimethylbenzoic acid] | 4.12 to 9.23 | 0.01 to 316 | 1 to 10000 |
| O=C(O)c1ccc(N(Cc2cc(C3CC3)cc(C3CC3)c2)C(=O)CN(Cc2cnccc2C(F)(F)F)S(=O)(=O)c2c(F)c(F)c(F)c(F)c2F)c(OC2CCCC2)c1 [Compound 1207, 3-(cyclopentyloxy)-4-(N-(3,5-dicyclopropylbenzyl)-2-(N-((4-(trifluoromethyl)pyridin-3-yl)methyl)-(2,3,4,5,6-pentafluoro-phenyl)sulfonamido)acetamido)benzoic acid] | 4.12 to 9.23 | 0.01 to 316 | 10000 to 20000 |

More lines, main results first:

| half-life at 25 μM (glutathione (GSH)) [h] | SMILES | IC50 (MV4-11 cells) [nM] | IC50 [1] [nM] |
| --- | --- | --- | --- |
| 2.37 to 4.12 | COc1cc(C(=O)O)ccc1N(Cc1cc(C2CC2)cc(C2CC2)c1)C(=O)CN(Cc1ccc(F)cc1Cl)S(=O)(=O)c1c(F)c(F)c(F)c(F)c1F [Compound 1166, 4-(2-(N-(2-chloro-4-fluorobenzyl)-(2,3,4,5,6-pentafluorophenyl)sulfon-amido)-N-(3,5-dicyclopropylbenzyl)acetamido)-3-methoxybenzoic acid] | 0.01 to 316 | 1 to 10000 |
| 4.12 to 9.23 | O=C(O)c1ccc(N(Cc2cc(C3CC3)cc(C3CC3)c2)C(=O)CN(Cc2ccc(F)cc2Cl)S(=O)(=O)c2c(F)c(F)c(F)c(F)c2F)c(OC2CC2)c1 [Compound 1167, 4-(2-(N-(2-chloro-4-fluorobenzyl)-(2,3,4,5,6-pentafluorophenyl)sulfon-amido)-N-(3,5-dicyclopropylbenzyl)acetamido)-3-cyclopropoxybenzoic acid] | 0.01 to 316 | 10000 to 20000 |
| 9.23 to 1670 | CC(C)(C)c1cc(CN(C(=O)CN(Cc2ccc(F)cc2Cl)S(=O)(=O)c2c(F)c(F)c(F)c(F)c2F)c2ccc(C(=O)O)cc2OC2CC2)cc(C2CC2)c1 [Compound 1189, 4-(N-(3-(tert-butyl)-5-cyclopropylbenzyl)-2-(N-(2-chloro-4-fluorobenzyl)-(2,3,4,5,6-pentafluorophenyl)sulfon-amido)acetamido)-3-cyclopropoxybenzoic acid] | 0.01 to 316 | 10000 to 20000 |
| 9.23 to 1670 | O=C(O)c1ccc(N(Cc2cc(C3CC3)cc(N3CCCC3)c2)C(=O)CN(Cc2c(F)cc(F)cc2F)S(=O)(=O)c2c(F)c(F)c(F)c(F)c2F)c(OC2CC2)c1 [Compound 1191, 3-cyclopropoxy-4-(N-(3-cyclopropyl-5-(pyrrolidin-1-yl)benzyl)-2-(N-(2,4,6-trifluorobenzyl)-(2,3,4,5,6-pentafluoro-phenyl)sulfonamido)acetamido)benzoic acid] | 316 to 1000 | 1 to 10000 |
| 9.23 to 1670 | O=C(O)c1ccc(N(Cc2cc(C3CC3)cc(N3CCCC3)c2)C(=O)CN(Cc2ccc(F)cc2Cl)S(=O)(=O)c2c(F)c(F)c(F)c(F)c2F)c(OC2CC2)c1 [Compound 1192, 4-(2-(N-(2-chloro-4-fluorobenzyl)-(2,3,4,5,6-pentafluorophenyl)sulfon-amido)-N-(3-cyclopropyl-5-(pyrrolidin-1-yl)benzyl)acetamido)-3-cyclopropoxybenzoic acid] | 316 to 1000 | 10000 to 20000 |
| 4.12 to 9.23 | O=C(O)c1ccc(N(Cc2cc(C3CC3)cc(C3CC3)c2)C(=O)CN(Cc2ccc(F)cc2Cl)S(=O)(=O)c2c(F)c(F)c(F)c(F)c2F)c(C2CC2)c1 [Compound 1197, 4-(2-(N-(2-chloro-4-fluorobenzyl)-(2,3,4,5,6-pentafluorophenyl)sulfon-amido)-N-(3,5-dicyclopropylbenzyl)acetamido)-3-cyclopropylbenzoic acid] | 0.01 to 316 | 10000 to 20000 |
| 9.23 to 1670 | O=C(O)c1ccc(N(Cc2cc(C3CC3)cc(N3CCCC3)c2)C(=O)CN(Cc2ccc(F)cc2Cl)S(=O)(=O)c2c(F)c(F)c(F)c(F)c2F)c(C2CC2)c1 [Compound 1200, 4-(2-(N-(2-chloro-4-fluorobenzyl)-(2,3,4,5,6-pentafluorophenyl)sulfon-amido)-N-(3-cyclopropyl-5-(pyrrolidin-1-yl)benzyl)acetamido)-3-cyclopropylbenzoic acid] | 0.01 to 316 | 1 to 10000 |

Reference: patent US20230159445A1, “STAT INHIBITORY COMPOUNDS AND COMPOSITIONS” (JANPIX LIMITED, priority 2020, published 2023)
